Reference: patent US11472769B2, “SSAO inhibitors and use thereof” (Eccogene (Shanghai) Co., Ltd., priority 2019, dated 2022)

What was measured:
[1] = target: recombinant hMAO-B (Homo sapiens (Human), UniProt P27338); test: MAO-B activity assay (MAO-Glo assay kit); assay type: biochemical; settings: 4 μM substrate, 30 mins pre-incubation
In short: (§1)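 Recombinant human enzymes were pre-incubated 30 min at room temperature with compound (0.1% DMSO), then given luminogenic substrate: 40 μM for SSAO and MAO-A (MAO-A buffer), 4 μM for MAO-B (MAO-B buffer).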

[2] = Brain Kpuu assay (BBB assay and protein binding assay); assay type: in vivo; settings: mouse; ICR mice, 1 mg/kg IV, plasma and brain collected at 5 minutes after dosing; read-out: Kpuu (mouse, t = 5 min)
Description: For example, Brain Kpuu assay composed of Blood-Brain-Barrier (BBB) assay and protein binding assay, can be utilized. The protein binding assay comprises equilibrium dialysis against brain lysate and plasma to calculate fu(brain) and fu(plasma), respectively. The BBB assay can be conducted in experimental animals at 1 mg/kg IV dosage. After dosing with the compounds of the present application, plasma and brain samples can be collected to analyze compound concentration (Cplasma and Cbrain). The Kpuu value of the tested compounds can be calculated by the equation: […]
Brain Kpuu assay is composed of Blood-Brain-Barrier (BBB) assay and protein binding assay, which are conducted in ICR mice. Protein binding assays were performed in 96-well plates, using equilibrium dialysis against brain lysate and plasma to calculate fu(brain) and fu(plasma), respectively. BBB assays were conducted in mice at 1 mg/kg IV dosage. Plasma and brain samples were collected at 5 minutes after dosing to analyze compounds concentration (Cplasma and Cbrain). The Kpuu value of the tested compounds was calculated by the equation: […]

[3] = target: recombinant hSSAO (Homo sapiens (Human), UniProt Q16853); test: SSAO Activity Assay (MAO-Glo assay kit); assay type: biochemical; settings: 40 μM substrate, 30 mins pre-incubation
In short: as §1

[4] = target: recombinant hMAO-A (Homo sapiens (Human), UniProt P21397); test: MAO-A activity assay (MAO-Glo assay kit); assay type: biochemical; settings: 40 μM substrate, 30 mins pre-incubation
In short: as §1

Chain of recombinant hMAO-B (P27338 whole entry): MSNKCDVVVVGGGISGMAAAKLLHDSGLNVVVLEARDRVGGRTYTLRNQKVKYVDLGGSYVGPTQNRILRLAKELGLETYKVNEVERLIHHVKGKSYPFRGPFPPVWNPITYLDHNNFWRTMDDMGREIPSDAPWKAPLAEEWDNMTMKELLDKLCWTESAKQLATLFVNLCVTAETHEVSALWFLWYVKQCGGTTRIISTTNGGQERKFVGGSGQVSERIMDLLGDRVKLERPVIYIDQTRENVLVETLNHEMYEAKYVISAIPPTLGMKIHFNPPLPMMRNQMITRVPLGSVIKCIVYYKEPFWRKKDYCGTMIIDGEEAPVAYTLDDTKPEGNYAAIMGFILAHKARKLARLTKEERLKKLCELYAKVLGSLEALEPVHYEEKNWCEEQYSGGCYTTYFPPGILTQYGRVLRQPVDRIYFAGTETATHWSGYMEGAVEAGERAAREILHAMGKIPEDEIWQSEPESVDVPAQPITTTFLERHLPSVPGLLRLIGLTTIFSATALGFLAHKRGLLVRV
Chain of recombinant hMAO-A (P21397 whole entry): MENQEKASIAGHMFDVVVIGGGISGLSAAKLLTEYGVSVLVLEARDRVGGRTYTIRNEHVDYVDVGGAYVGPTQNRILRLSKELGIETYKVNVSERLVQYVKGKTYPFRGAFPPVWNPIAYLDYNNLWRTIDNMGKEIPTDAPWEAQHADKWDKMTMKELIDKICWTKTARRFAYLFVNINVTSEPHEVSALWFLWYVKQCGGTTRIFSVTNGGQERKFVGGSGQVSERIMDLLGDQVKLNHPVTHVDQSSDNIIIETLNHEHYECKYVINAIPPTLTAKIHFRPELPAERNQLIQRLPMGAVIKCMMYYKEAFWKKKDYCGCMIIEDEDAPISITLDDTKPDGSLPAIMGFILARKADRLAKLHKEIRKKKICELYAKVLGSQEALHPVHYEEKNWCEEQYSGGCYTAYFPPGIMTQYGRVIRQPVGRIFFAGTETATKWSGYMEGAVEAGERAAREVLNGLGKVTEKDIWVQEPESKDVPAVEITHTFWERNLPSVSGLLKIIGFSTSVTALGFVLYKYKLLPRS
Chain of recombinant hSSAO (Q16853 whole entry): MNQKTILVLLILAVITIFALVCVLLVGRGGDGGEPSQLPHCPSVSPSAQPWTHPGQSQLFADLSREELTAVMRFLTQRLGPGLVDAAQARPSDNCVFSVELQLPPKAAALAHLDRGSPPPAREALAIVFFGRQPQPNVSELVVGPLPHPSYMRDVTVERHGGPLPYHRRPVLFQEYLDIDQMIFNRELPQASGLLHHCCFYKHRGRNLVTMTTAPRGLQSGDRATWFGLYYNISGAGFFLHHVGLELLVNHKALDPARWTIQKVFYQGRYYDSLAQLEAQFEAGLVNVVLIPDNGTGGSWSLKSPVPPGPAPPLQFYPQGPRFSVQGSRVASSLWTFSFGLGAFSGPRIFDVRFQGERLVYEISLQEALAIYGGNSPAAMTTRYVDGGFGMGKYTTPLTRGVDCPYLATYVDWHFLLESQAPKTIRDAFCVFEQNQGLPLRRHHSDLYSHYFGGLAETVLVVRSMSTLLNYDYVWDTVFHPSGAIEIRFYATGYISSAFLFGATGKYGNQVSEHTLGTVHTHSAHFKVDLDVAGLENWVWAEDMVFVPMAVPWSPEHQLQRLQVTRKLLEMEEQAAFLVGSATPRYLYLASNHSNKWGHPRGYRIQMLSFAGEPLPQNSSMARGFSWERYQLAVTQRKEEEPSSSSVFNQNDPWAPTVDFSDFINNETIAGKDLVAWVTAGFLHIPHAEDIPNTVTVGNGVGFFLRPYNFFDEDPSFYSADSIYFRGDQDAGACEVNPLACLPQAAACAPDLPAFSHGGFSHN

| IC50 [1] [µM] | Kp uu at 5 min [2] | IC50 [3] [µM] | IC50 [4] [µM] | SMILES |
| --- | --- | --- | --- | --- |
| > 30 | 0.025 | 0.02 to 0.1 | > 30 | NC/C(=C\F)COc1ccc(S(=O)(=O)CC2CCN(C(=O)C3CC3)CC2)cc1 [Compound 44, (E)-(4-(((4-((2-(aminomethyl)-3-fluoroallyl)oxy)phenyl)sulfonyl)methyl)piperidin-1-yl)(cyclopropyl)methanone] |
| 10 to 30 | 0.018 | < 0.02 | > 30 | NC/C(=C\F)COc1ccc(S(=O)(=O)CC23CCC(C(=O)NCC(F)(F)F)(CC2)CC3)cc1 [Compound 65, (E)-4-(((4-((2-(aminomethyl)-3-fluoroallyl)oxy)phenyl)sulfonyl)methyl)-N-(2,2,2-trifluoroethyl)bicyclo[2.2.2] octane-1-carboxamide] |
| 10 to 30 | 0.01 | 0.02 to 0.1 | > 30 | CC(C)(C)NC(=O)C12CCC(CS(=O)(=O)c3ccc(OC/C(=C/F)CN)cc3)(CC1)CC2 [Compound 70, (E)-4-(((4-((2-(aminomethyl)-3-fluoroallyl)oxy)phenyl)sulfonyl)methyl)-N-(tert-butyl)bicyclo[2.2.2]octane-1-carboxamide] |
| 10 to 30 | 0.077 | < 0.02 | > 30 | CC1(C(=O)NC23CCC(CS(=O)(=O)c4ccc(OC/C(=C/F)CN)cc4)(CC2)CC3)CC1 [Compound 91, (E)-N-(4-(((4-((2-(aminomethyl)-3-fluoroallyl)oxy)phenyl)sulfonyl)methyl)bicyclo[2.2.2]octan-1-yl)-1-methylcyclopropane-1-carboxamide] |
